In patent US12365674B2, “Inhibitors of histone deacetylase useful for the treatment or prevention of HIV infection” (Merck Sharp & Dohme LLC, priority 2019, dated 2025):
pIC50: −log10 of the molar value.

Biological target: T1, HDAC6 (Homo sapiens, UniProt Q9UBN7)
T1 sequence (Q9UBN7 1-1215): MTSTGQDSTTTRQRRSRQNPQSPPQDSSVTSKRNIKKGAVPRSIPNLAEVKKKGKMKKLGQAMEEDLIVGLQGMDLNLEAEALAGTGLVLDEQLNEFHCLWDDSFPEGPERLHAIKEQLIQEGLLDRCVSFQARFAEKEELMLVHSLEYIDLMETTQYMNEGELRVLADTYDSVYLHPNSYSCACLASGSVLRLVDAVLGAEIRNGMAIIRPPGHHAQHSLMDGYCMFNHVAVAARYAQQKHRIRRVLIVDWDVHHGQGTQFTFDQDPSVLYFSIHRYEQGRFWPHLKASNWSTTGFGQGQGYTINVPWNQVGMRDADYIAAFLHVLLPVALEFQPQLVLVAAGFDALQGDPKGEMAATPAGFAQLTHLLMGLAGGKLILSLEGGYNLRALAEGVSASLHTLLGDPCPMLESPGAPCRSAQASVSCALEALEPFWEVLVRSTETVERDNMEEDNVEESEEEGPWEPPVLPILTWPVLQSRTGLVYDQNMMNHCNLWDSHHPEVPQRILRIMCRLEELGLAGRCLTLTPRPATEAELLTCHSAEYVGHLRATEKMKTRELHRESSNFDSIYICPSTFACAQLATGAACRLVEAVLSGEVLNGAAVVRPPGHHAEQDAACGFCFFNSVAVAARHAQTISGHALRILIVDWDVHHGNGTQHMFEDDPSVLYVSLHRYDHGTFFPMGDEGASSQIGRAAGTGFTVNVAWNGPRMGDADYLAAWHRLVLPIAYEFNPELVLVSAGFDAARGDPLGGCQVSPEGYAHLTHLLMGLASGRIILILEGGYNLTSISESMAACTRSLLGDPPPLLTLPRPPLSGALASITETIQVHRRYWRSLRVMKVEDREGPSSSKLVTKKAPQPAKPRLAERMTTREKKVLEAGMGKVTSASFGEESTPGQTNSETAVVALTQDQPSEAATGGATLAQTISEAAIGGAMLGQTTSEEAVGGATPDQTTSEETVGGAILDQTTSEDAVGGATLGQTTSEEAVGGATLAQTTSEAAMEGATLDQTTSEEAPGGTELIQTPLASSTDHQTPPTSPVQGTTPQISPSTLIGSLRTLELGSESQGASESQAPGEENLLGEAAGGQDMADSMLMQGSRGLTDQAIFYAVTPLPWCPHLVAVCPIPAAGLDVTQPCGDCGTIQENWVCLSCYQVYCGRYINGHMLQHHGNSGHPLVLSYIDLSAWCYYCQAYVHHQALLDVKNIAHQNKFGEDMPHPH
Assay: Human HDAC enzyme inhibitor Fluor-de-Lys assay, HDAC6
Type: biochemical
Details: 1.3 nM enzyme, 2.5 μM substrate BML-KI104, 3 h pre-incubation, 60 min reaction; read-out: HDAC6_IC50
From the text: Recombinant human HDAC8 (catalog number BML-SE145-0100) and HDAC10 (catalog number BML-SE559-0050) enzymes, HDAC substrates BML-KI104 and BML-KI178, and HDAC developer solutions BML-KI105 and BML-KI176 were purchased from Enzo Life Sciences (Farmingdale, NY). Recombinant human HDAC5 and HDAC11 were purchased from BPS Bioscience (San Diego, CA)(catalog numbers 50045 and 50021). Substrate Boc-Lys(TFA)-AMC was obtained from Bachem (Bupendorf, Switzerland) (catalog number 1-1985). HDAC inhibitor suberoylanilide hydroxamic acid (SAHA) was obtained from Indofine (Hillsborough Township, NJ) and trichostatin A (TSA) was obtained from Sigma-Aldrich (St. Louis, MO). […] HEPES pH 8.0 was obtained from Boston BioProducts (Ashland, MA), Tween-20 from Fisher Scientific (Hampton, NH)(catalog number BP337), TCEP from Calbiochem and 7.5% bovine serum albumin (BSA) from Life Technologies (Carlsbad, CA) (catalog number 15260037). 384-well, black assay plates were obtained from Corning (Corning, NY) (catalog number 3575).
The histone deacetylase activities of HDAC1, HDAC2, HDAC3, HDAC6, and HDAC8 were measured in modified Fluor-de-Lys assays in 384-well format. In this assay, HDAC enzymes are initially incubated with an ε-acetyl (or -trifluoroacetyl)-L-lysine-containing substrate with a C-terminal amide having aminomethylcoumarin as the amine component. HDACs cleave the ε-acetyl group, rendering the resulting product susceptible to AMC cleavage by trypsin. The released AMC is then detected by its fluorescence.
The HDAC 1, 2 assays employed buffer A, which contained 20 mM HEPES, pH 8.0, 1 mM MgCl2, 137 mM NaCl, 2.7 mM KCl, 0.05% BSA. The HDAC3/SMRT assay employed buffer B, consisting of 20 mM HEPES, pH 8.0, 1 mM MgCl2, 50 mM NaCl, 2.7 mM KCl, 0.05% BSA, 0.005% Tween 20, and 10 μM IP4. The HDAC6 assay employed buffer C, consisting of 20 mM HEPES, pH 8.0, 1 mM MgCl2, 137 mM NaCl, 2.7 mM KCl, 0.5 mM TCEP (Calbiochem) and 0.05% BSA. The HDAC8 assay employed buffer D, consisting of 20 mM HEPES, pH 8.0, 1 mM MgCl2, 100 mM NaCl, 20 mM KCl, 0.1% n-octyl-β-D-glucoside (Anatrace, Maumee, OH) and 0.05% BSA. All steps were performed at room temperature (23° C.). The assay was performed by pre-incubating serial dilutions of test compounds with the target HDAC prior to initiation with substrate. Each compound was titrated in a 10-point dose response, using a 1:3 fold dilution scheme, with 0.15 ul of solution added by ECHO555 to the plate, followed by the addition of 20 μl of the appropriate HDAC isoform diluted in appropriate assay buffer. […] Final conditions used for each assay were: 1. HDAC 1, 0.3 nM total enzyme, 20 μM substrate BML-K1104; 2. HDAC 2, 1.5 nM total enzyme, 40 μM substrate BML-K1104; 3. HDAC 3/SMRT, 0.3 nM total enzyme, 20 μM substrate BML-K1104; 4. HDAC 6, 1.3 nM total enzyme, 2.5 μM substrate BML-K1104; 5. HDAC 8, 1.3 nM total enzyme, 200 μM substrate BML-K1178; the final high dose of test compound was 30 μM. For potent compounds, 900 nM was used as the final high dose. The reactions were stopped and developed by addition of 30 ul of HDAC developer solution containing a saturating level of HDAC inhibitor as follows: 1.

| Structure (SMILES) | pIC50 |
| --- | --- |
| CN1CCC2(CC1)C[C@@H]2C(=O)N[C@@H](COCCCC(=O)c1ccon1)c1[nH]c(-c2ccc(F)cc2)nc1Cl [Compound 18, (1S)-N-[(1R)-1-[4-chloro-2-(4-fluorophenyl)-1H-imidazol-5-yl]-2-(4-isoxazol-3-yl-4-oxobutoxy)ethyl]-6-methyl-6-azaspiro[2.5]octane-1-carboxamide] | < 6.05 |
| N[C@@H](COCCCC(=O)c1ccon1)c1ncc(-c2ccccc2F)[nH]1 [Compound 2, (R)-4-(2-amino-2-(5-(2-fluorophenyl)-1H-imidazol-2-yl)ethoxy)-1-(isoxazol-3-yl)butan-1-one] | < 6.05 |
